# Source: paper PMC12259508, “Expediting multiple biological properties of main bioactive compounds of Mentha pulegium L” (AMB Express, 2025)
# Read-outs that look alike come from different tables or passages of the source.
# Key:
# [1] = molecular target: T1, α-amylase from Bacillus licheniformis (Bacillus licheniformis, UniProt P06278); assay: α-Amylase inhibitory assay (starch/DNS); format: biochemical; settings: mean ± SD, triplicate
# T1 construct: purchased
# Protocol: (§1) The α-glucosidase from Saccharomyces cerevisiae and the α-amylase from Bacillus licheniformis were also obtained from reliable commercial sources. Additional reagents were carefully selected from reputable suppliers. Mueller–Hinton agar was sourced from Biokar in Beauvais, France. All other chemicals used are of analytical grade.
# Specifically, 250μL of the sample was mixed with an equal volume of α-amylase (240 U/mL) in a 0.02 M sodium phosphate buffer (SPB) (pH = 6.9). The mixtures were incubated at 37 °C for twenty minutes. Subsequently, 250 µL of a 1% starch solution in a 0.02 M SPB (pH = 6.9) was added to the reaction mixture, and the combination was allowed to sit at 37 °C for 15 min. One milliliter of dinitrosalicylic acid (DNS) was then introduced, and the blend was brought to a boil in a water bath for ten minutes. The reaction mixture was subsequently diluted with 2 mL of distilled water, and the absorbance was measured at 540 nm using an ultraviolet–visible spectrophotometer.
# [2] = molecular target: T2, α-glucosidase from Saccharomyces cerevisiae (Saccharomyces cerevisiae, UniProt P53341); assay: α-Glucosidase inhibitory assay (pNPG); format: biochemical; settings: mean ± SD, triplicate
# T2 construct: purchased
# Protocol: as §1
# Initially, 200 µL of the samples were mixed with 100 µL of 0.1 M SPB (pH = 6.7) containing 0.1 U/mL of α-glucosidase enzyme. The mixture was then incubated at 37 °C for ten minutes. One milligram of pNPG was dissolved in 0.1 ml of SPB (pH = 6.7). The activity of α-glucosidase was assessed by measuring the absorbance at 405 nm following the addition of 1 mL of 0.1 M Na2CO3 to the reaction mixture.
# [3] = tested on: Listeria monocytogenes ATCC 13932; assay: MIC and MBC determination, broth microdilution; format: cell-based; settings: for MBC / MIC: Listeria monocytogenes; for MBC: ATCC13932, 24 h; for MIC Listeria monocytogenes: broth microdilution
# Protocol: (§2) As mentioned before, the minimum inhibitory concentration (MIC) was established using the broth microdilution method. The minimum sample concentration required to destroy the bacteria is indicated by the minimum bactericidal concentration (MBC). The microdilution method, based on MIC determination, was similarly applied. After 24 h of incubation at 37 °C, […] of sample from each tube showing no apparent growth were inoculated on Tryptone Soja agar (Biokar, Beauvais, France). The MBC was determined as the lowest concentration showing no growth on the culture medium.
# [4] = tested on: Pseudomonas aeruginosa ATCC 27853; assay: MIC and MBC determination, broth microdilution; format: cell-based; settings: for MBC: ATCC27853, 24 h, read-out: MBC Pseudomonas aeruginosa
# Protocol: as §2
# [5] = tested on: Staphylococcus aureus ATCC 29213; assay: MIC and MBC determination, broth microdilution; format: cell-based; settings: for MBC / MIC: Staphylococcus aureus; for MBC: ATCC29213, 24 h; for MIC Staphylococcus aureus: broth microdilution
# Protocol: as §2
# [6] = tested on: Escherichia coli ATCC 25922; assay: MIC and MBC determination, broth microdilution; format: cell-based; settings: for MBC: ATCC25922, 24 h, read-out: MBC Escherichia coli
# Protocol: as §2
# [7] = tested on: methicillin resistant Staphylococcus aureus (MRSA); design: method as in Zhao et al. [2023b]; settings: ref Zhao et al. [2023b]; cited from earlier work
# elastase [8] = molecular target: T3, elastase (Sus scrofa, UniProt P00772); assay: Elastase inhibitory assay; format: biochemical
# Protocol: By adapting certain aspects, the methodology of this research is based on the protocol reported by Jeddi et al. (Jeddi et al. [2023]).
# Then, 200 µL of an elastase solution prepared in Tris–HCl buffer (0.2 M, pH 8.0) was mixed with 50 µL of each sample. Following a 15-min incubation at 25 °C, 200 µL of N-succinyl-Ala-Ala-p-nitroanilide solution was added, and the reaction mixtures were homogenized. Absorbances were recorded at 410 nm after an additional 20-min incubation at 25 °C. […] Furthermore, the methodology described in this study should provide a valuable resource for future research assessing the effect of other natural compounds on elastase activity, thereby expanding our understanding of their beneficial properties.
# [9] = design: method as in Luís and Domingues [2021]; settings: ref Luís and Domingues [2021]; cited from earlier work
# α-amylase = molecular target: α-amylase; design: method as in Omari et al. [2023]; settings: ref Omari et al. [2023]; cited from earlier work
# α-glucosidase = molecular target: α-glucosidase; design: method as in Omari et al. [2023]; settings: ref Omari et al. [2023]; cited from earlier work
# elastase [10] = molecular target: T3, elastase; design: method as in our previous study; settings: ref our previous study, cited from earlier work
# [11] = tested on: Streptococcus equi subsp. equi; design: method as in Nozohour and Jalilzadeh-amin [2021]; settings: ref Nozohour and Jalilzadeh-amin [2021]; cited from earlier work
# S. maltophilia = tested on: S. maltophilia; design: method as in Baygar ([2019]); settings: ref Baygar ([2019]); cited from earlier work
# E. coli K1 = tested on: E. coli K1; design: method as in Gong et al. [2021]; settings: ref Gong et al. [2021], cited from earlier work
# S. epidermidis = tested on: S. epidermidis; design: method as in Sonboli et al. ([2006]); settings: ref Sonboli et al. ([2006]); cited from earlier work
# S. aureus [12] = tested on: S. aureus; design: method as in Farhanghi et al. [2022]; settings: ref Farhanghi et al. [2022]; cited from earlier work
# S. aureus [13] = tested on: S. aureus; design: method as in Sonboli et al. ([2006]); settings: ref Sonboli et al. ([2006]); cited from earlier work
# [14] = tested on: P. aeruginosa, S. aureus, and K. pneumoniae; design: method as in Amalich et al. [2016]; settings: ref Amalich et al. [2016]; cited from earlier work
# tyrosinase = tyrosinase (Agaricus bisporus, UniProt C7FF04); design: method as in our previous study; settings: ref our previous study; cited from earlier work
# [15] = 24 h, 37 °C, read-out: MBC Listeria monocytogenes
# [16] = ATCC13932, broth microdilution, read-out: MIC Listeria monocytogenes
# [17] = ATCC27853, broth microdilution, read-out: MIC Pseudomonas aeruginosa
# [18] = 24 h, 37 °C, read-out: MBC Staphylococcus aureus
# [19] = ATCC29213, broth microdilution, read-out: MIC Staphylococcus aureus
# [20] = ATCC25922, broth microdilution, read-out: MIC Escherichia coli
# T3 sequence (P00772 27-266): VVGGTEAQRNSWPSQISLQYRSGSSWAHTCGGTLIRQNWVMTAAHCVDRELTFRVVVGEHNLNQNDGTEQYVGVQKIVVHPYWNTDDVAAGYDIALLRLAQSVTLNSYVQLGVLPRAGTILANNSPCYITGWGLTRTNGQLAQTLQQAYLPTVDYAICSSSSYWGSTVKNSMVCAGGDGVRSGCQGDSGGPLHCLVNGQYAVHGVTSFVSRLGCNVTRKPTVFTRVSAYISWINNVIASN
# T2 sequence (P53341 whole entry): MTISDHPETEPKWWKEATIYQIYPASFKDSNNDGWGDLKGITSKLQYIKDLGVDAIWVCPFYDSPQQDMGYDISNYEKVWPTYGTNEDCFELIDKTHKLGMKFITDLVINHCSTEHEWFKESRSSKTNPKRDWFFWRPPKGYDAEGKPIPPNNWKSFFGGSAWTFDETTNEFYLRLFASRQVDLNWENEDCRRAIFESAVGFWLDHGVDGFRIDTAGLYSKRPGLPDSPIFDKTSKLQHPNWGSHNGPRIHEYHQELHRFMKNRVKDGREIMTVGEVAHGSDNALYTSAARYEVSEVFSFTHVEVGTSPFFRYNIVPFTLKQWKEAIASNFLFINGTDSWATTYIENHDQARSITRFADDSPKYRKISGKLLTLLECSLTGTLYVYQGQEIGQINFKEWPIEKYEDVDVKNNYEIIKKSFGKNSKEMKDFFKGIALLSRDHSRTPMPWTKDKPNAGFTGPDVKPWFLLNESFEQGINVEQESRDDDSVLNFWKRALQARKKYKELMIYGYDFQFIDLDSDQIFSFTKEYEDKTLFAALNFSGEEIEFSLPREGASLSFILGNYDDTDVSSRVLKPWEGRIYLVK
# T1 sequence (P06278 30-512): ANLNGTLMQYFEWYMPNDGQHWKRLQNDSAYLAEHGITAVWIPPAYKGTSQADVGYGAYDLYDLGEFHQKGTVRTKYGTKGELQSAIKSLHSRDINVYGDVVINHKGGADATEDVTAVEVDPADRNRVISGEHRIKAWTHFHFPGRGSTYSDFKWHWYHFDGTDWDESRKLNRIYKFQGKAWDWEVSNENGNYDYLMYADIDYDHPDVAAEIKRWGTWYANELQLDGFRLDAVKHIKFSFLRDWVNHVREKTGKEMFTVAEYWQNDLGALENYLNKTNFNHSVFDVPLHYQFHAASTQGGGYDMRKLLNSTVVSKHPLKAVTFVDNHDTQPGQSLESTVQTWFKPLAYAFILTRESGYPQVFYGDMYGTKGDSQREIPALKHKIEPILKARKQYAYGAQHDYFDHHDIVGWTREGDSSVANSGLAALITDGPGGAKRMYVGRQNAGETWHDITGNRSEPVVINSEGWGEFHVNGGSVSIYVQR
# Chain of tyrosinase (C7FF04 1-392): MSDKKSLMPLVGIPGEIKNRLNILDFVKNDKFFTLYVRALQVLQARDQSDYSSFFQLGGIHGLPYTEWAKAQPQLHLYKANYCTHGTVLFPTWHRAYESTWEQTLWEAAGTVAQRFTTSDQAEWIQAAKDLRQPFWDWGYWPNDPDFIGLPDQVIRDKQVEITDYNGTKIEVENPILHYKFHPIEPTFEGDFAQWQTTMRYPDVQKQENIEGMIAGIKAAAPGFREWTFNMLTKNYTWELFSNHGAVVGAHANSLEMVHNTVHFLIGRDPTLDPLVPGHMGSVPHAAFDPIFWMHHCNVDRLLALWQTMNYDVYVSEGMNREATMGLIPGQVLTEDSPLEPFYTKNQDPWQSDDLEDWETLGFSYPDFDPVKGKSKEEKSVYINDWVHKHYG
compound,measurement,setting,value
"CC(C)[C@@H]1CC[C@@H](C)CC1=O [Menthone, menthone]",IC50,[1],968 µM
same,IC50,[2],703 µM
same,MBC Listeria monocytogenes,"[3]; 24 h, 37 °C",0.25 µg/mL
same,MBC,[3]; [15],0.125 to 0.25 µg/mL
same,MIC,[3]; [16],0.125 to 0.25 µg/mL
same,MIC Listeria monocytogenes,[3],0.125 µg/mL
same,MBC,[4]; 37 °C,1 µg/mL
same,MIC,[4]; [17],0.5 µg/mL
same,MBC Staphylococcus aureus,"[5]; 24 h, 37 °C",0.125 µg/mL
same,MBC,[5]; [18],0.125 to 0.25 µg/mL
same,MIC,[5]; [19],0.125 to 0.25 µg/mL
same,MIC Staphylococcus aureus,[5],0.125 µg/mL
same,MBC,[6]; 37 °C,> 2 µg/mL
same,MIC,[6]; [20],1 µg/mL
same,MBC MRSA,[7],7.1 µg/mL
same,MIC MRSA,[7],3.5 µg/mL
same,IC50,elastase [8],860 µM
CC(=O)Oc1ccccc1C(=O)O [acetylsalicylic acid],IC50 inhibition of protein denaturation,[9],"89.47 ± 2.64 %, v/v"
CC1=CCC2CC1C2(C)C (stereo not drawn) [α-pinene],IC50 α-amylase,α-amylase,82.12 ± 4.52 µg/mL
same,IC50 α-glucosidase,α-glucosidase,95.62 ± 4.11 µg/mL
same,IC50,elastase [10]; read-out: IC50 anti-elastase (converted),471 µM
"O=C(N[C@H](CO)[C@H](O)c1ccc([N+](=O)[O-])cc1)C(Cl)Cl [Chloramphenicol, reference compound]",MBC,[3]; [15],32 µg/mL
same,MIC,[3]; [16],16 µg/mL
same,MBC,[4]; 37 °C,64 µg/mL
same,MIC,[4]; [17],64 µg/mL
same,MBC,[5]; [18],32 µg/mL
same,MIC,[5]; [19],8 µg/mL
same,MBC,[6]; 37 °C,32 µg/mL
same,MIC,[6]; [20],8 µg/mL
"CC(C)=C1CC[C@@H](C)CC1=O [Pulegone, pulegone]",IC50,[1],1200 µM
same,inhibition zone Streptococcus equi subsp. equi,[11],20 mm
same,MBC S. maltophilia,S. maltophilia,5000 µg/mL
same,MIC S. maltophilia,S. maltophilia,2500 µg/mL
same,inhibition zone S. maltophilia,S. maltophilia,28 mm
same,reduced biofilm formation,E. coli K1; E. coli K1,52.36%
same,MBC E. coli K1,E. coli K1,47350 µg/mL
same,MIC E. coli K1,E. coli K1,23680 µg/mL
same,activity against S. epidermidis,S. epidermidis,1.8 ± 0.3 mg/mL
same,IC50,[2],783 µM
same,MIC S. aureus,S. aureus [12],5.85 μl/mL
same,activity against S. aureus,S. aureus [13],1.8 ± 0.3 mg/mL
same,"inhibitory effects on P. aeruginosa, S. aureus, and K. pneumoniae",[14],2.80–11.20 µl/mL
same,MBC Listeria monocytogenes,"[3]; 24 h, 37 °C",0.125 µg/mL
same,MBC,"[3]; read-out: MBC Listeria monocytogenes, 24 h, 37 °C",0.125 to 0.25 µg/mL
same,MIC,"[3]; ATCC13932, read-out: MIC Listeria monocytogenes, broth microdilution",0.125 to 0.25 µg/mL
same,MIC Listeria monocytogenes,[3],0.125 µg/mL
same,MBC,[4],0.5 µg/mL
same,MIC,"[4]; ATCC27853, read-out: MIC Pseudomonas aeruginosa",0.5 µg/mL
same,MBC Staphylococcus aureus,"[5]; 24 h, 37 °C",0.25 µg/mL
same,MBC,"[5]; read-out: MBC Staphylococcus aureus, 24 h, 37 °C",0.125 to 0.25 µg/mL
same,MIC,"[5]; ATCC29213, read-out: MIC Staphylococcus aureus, broth microdilution",0.125 to 0.25 µg/mL
same,MIC Staphylococcus aureus,[5],0.125 µg/mL
same,MBC,[6],0.5 µg/mL
same,MIC,"[6]; ATCC25922, read-out: MIC Escherichia coli",0.25 µg/mL
same,IC50,elastase [8],774 µM
"CC12CCC(CC1)C(C)(C)O2 [eucalyptol, reference compound]",MIC S. aureus,S. aureus [12],23.43 μl/mL
C=C(C)[C@H]1CC=C(C)CC1 [limonene],IC50 anti-tyrosinase,tyrosinase,74.24 ± 2.06 µg/mL
same,IC50 anti-elastase,elastase [10],91.25 ± 3.06 µg/mL
